Patent US20150174112A1, “COMPOSITIONS FOR TREATING FRAGILE X AND OTHER DISORDERS METHODS OF USE THEREOF, AND SCREENING FOR COMPOUNDS FOR FRAGILE X AND OTHER DISORDERS” (EMORY UNIVERSITY, priority 2005, published 2015)

Key:
Format in all cases: in vivo, Drosophila
[1] = test system: mushroom body structure in dfmr1 null fly brain; experiment: Staining and analysis of mushroom body morphology; settings: for mushroom body defects of dfmr1 mutant adults (in words): 0- to 2-day-old adults developed on LF supplemented with drug at optimal viability dose; for brain structural abnormality (mushroom body formation) in treated dFmr1 flies (in words) / percentage of normal brains (mushroom body) after treatment: Example 2; for percentage of normal brains (mushroom body) after treatment: dFmr1 flies, 27% without treatment
Description: A striking morphological phenotype of dfmr1 deficiency in Drosophila involves structural abnormalities of the mushroom body in the fly brain. The mushroom body, important for Drosophila learning and memory, is an axon-like fiber structure composed of three paired neuronal lobes (the α, β, and γ lobes). In dfmr1 null flies, the β lobes, which normally terminate at the midline cleft, often cross through the midline. In addition, dfmr1 null flies also have missing or misdirected α and β lobes, as well as truncated or over-branched lobes. […] To test whether compounds identified in the viability screen could rescue the mushroom body morphology, 0- to 2-day-old dfmr1 mutant adults were examined that developed on LF supplemented with four of the nine compounds identified above (GABA, nipecotic acid, creatinine, and isopilocarpine).
Brains from 0- to-2-day-old adults were dissected, fixed, and stained. Anti-Fascicilin II (ID4, Developmental Studies Hybridoma Bank) was used at 1:10 dilution and Alexa anti-mouse secondary antibody (Molecular probes) 1:100. Confocal microscopy was performed using a Leica Scanning laser confocal microscope. Neuronal lobe abnormalities were analyzed and scored by obtaining optical stacks of the α and β lobes as described.

Futsch = experiment: Quantitative Western analysis of Futsch protein in fly head lysates; settings: flies raised on LF with drug at effective dosage
Description: FIG. 3A illustrates a representative Western blot showing Futsch expression in w^1118, dfmr1^3+/−, and dfmr1^3−/− head lysates. Flies were raised on LF with or without drug supplements using the effective dosages. Heads from 0- to 2-day old adult flies were used to prepare protein lysates. β-actin was used as a loading control.
FIG. 3B illustrates the quantification of relative Futsch protein level from multiple Western blots using Kodak Imaging System software. The quantifications were based on duplicate Western analyses obtained from triplicate collections of […] from two separate drug treatments (6 sets of samples total). The futsch levels were first normalized to β-actin levels, then plotted as the percentage of change of each treatment/genotype compared to w^1118 (no drug), which was set as 100%.
Additionally, it was tested whether the same four compounds could rescue the biochemical phenotype of Futsch over-expression that is associated with dfmr1 deficiency. The mRNA of Futsch is normally bound and translationally repressed by dFmrp. Thus, loss of dFmrp results in excess Futsch translation.
Quantitative Western analyses were performed. Briefly, 0- to 2-day-old adult Drosophila heads were obtained, and homogenized in lysis buffer (10 mM Tris (pH 7.5), 150 mM NaCl, 30 mM EDTA (pH 8.0), 0.5% Triton X-100, and 1× complete protease inhibitor (Boehringer Mannheim). 30 fly heads were collected per sample. 10 μg total protein lysates were subjected to SDS-PAGE electrophoresis on a 4%-20% gradient Tris-HCl gel (Bio-Rad). Monoclonal anti-22C10 against Futsch (1:500) was purchased from the Developmental Studies Hybridoma Bank (DSHB), University of Iowa. For the loading control, an antibody against […] (Abcam) was used at a final concentration of 0.8 μg/ml. The signals were quantified using the Kodak Imaging System software.

dfmr1 null embryos = experiment: Initial small molecule screen: pupae/adult recovery of dfmr1 null embryos on commercial food (CF); settings: 12 null embryos per vial, CF supplemented with 40 μM compound, 25° C., 10 to 15 days
Description: Since the rescue of dfmr1 null lethality is an easily scored phenotype, a relatively high throughput strategy was designed to screen chemical libraries for small molecules that can restore the viability of dfmr1 null flies raised on CF (FIG. 1D). In order to seed test vials with dfmr1 null embryos only, the dfmr1 mutation was balanced with a GFP-TM6C chromosome (w^1118; dfmr1^3/Kr: GFP, TM6C). This allowed sorting of the null dfmr1 mutants from other embryos by the absence of GFP fluorescence using a flow cytometry embryo sorter (COPAS SELECT). […]
The Spectrum Collection™ compound library was obtained from MicroSource Discovery Systems, Inc. Drugs used in larger quantities for confirmation and subsequent analysis were obtained from Sigma (St. Louis, Mo.) or Tocris-Cookson (UK). […]
(§1) For the initial screen, 12 dfmr13/dfmr13 (GFP−) embryos were placed in each well of a 96 well plate with CF+40 μM of individual drugs. 96-well plates were kept at 25° C. and the percentage of pupae and adults recovered was scored. […] Adult progeny were counted and the relative viability of homozygous null flies was scored as the percentage of viable adult progeny raised on CF+ drug compared to the progeny on LF alone.

[2] = test system: homozygous dfmr1-deficient flies; experiment: Fly viability assay: rescue of homozygous dfmr1 flies on CF (JAZMIX) plus drug; settings: for recovery of homozygous dFmr1 flies: 0% on JAZMIX food alone
Experimental: In particular, embodiments of the present disclosure include methods of screening compounds using a drosophila (fruit fly) based compound screen to identify drug candidates for the treatment of FMRP-loss related disorders.
The homozygous embryos are placed into an appropriate container (e.g., a 96-well container) containing a food with a lethal amount of glutamate and with or without a compound from a library of drugs candidates. The embryos were incubated at certain conditions for a certain amount of time (e.g., at about 25° C. for about 10 days) to allow embryonic development. The efficacy of the drug candidate is determined by scoring the number of pupae formation or the emergence of adult flies after a certain time frame. Files or pupae that came out from food with a nonlethal amount of glutamate were used as positive control, and flies or pupae that came out from food with lethal amounts of glutamate without drugs were used as negative control.
The separated homozygous embryos are then transferred to a regular fly culture vials or a 96-well container (e.g., 20 embryos per well) containing food with a lethal amount of glutamate with or without the drug (e.g., 300 μl of pre-mixed food and the drug). The embryos were incubated at 25° C. for about 10 days to allow embryonic development. The formation of pupae or adult flies can be directly quantified by visual inspection. Efficacy of drugs is determined by scoring the number of pupae formation or the emergence of adult flies after 10 days. Additional details regarding the active compositions and disorders are described in the Examples below.
(§2) To determine the cause of the observed CF lethality of dfmr1-deficient flies, HPLC amino acid analyses was performed on aqueous extracts of CF and LF food preparations and noted that the CF contained 1.8-fold more glutamate than the LF (FIG. 4). Since this could result in excess glutamate signaling, exacerbating the consequences of dFmrp loss, it was next determined whether supplementing LF with additional glutamate could decrease the viability of dfmr1-deficient flies. […] Indeed, 10 μM MPEP added to the CF rescued the homozygous deficient flies to approximately 60% of their normal viability on LF (FIG. 1C).
Fifteen of those compounds, as well as the MPEP-positive control, recovered pupal development from at least 25% of the seeded embryos (FIG. 5, Table 1). Each of these top 15 compounds underwent further validation using a larger-scale viability assay. Each vial was seeded with 100 embryos from dfmr1 heterozygous crosses, and adult progeny of both homozygous and heterozygous genotypes were counted 10 days later. Nine of the 15 compounds were validated and, for each of these, a dose-response analysis was performed to optimize the dosage (FIG. 5, Table 1). Using the optimal viability dose for each validated compound, it was explored whether other established phenotypes of dfmr1 deficiency are influenced by a selection of these compounds.
as §1

[3] = test system: dfmr1 homozygous null progeny; experiment: Viability of flies on laboratory food (LF) supplemented with glutamate; settings: glutamate added to LF, p<0.005
Experimental: FIG. 1B illustrates dfmr1-deficient flies raised on LF are sensitive to supplemented glutamate. Embryos of w^1118, dfmr1^3+/− and dfmr1^3−/− were allowed to develop on LF supplemented with additional glutamate. Relative viability was calculated within each genotype as the percentage of viable adult progeny raised on LF supplemented with glutamate compared to progeny raised on LF alone. (For w^1118 only: anything above 100% was indicated as 100%). (Error bar indicate SEM; *=P<0.005).
as §2

SMILES | mushroom body defects of dfmr1 mutant adults (in words) [1] | elevated Futsch protein level in dfmr1 null flies (in words) (Futsch) | percentage of normal brains (mushroom body) after treatment [1] [%] | also measured
NCCCC(=O)O [GABA] | significantly improved | did not significantly influence |  | 
Cc1cccc(C#Cc2ccccc2)n1 [MPEP] | rescued | significantly reduced |  | pupal development recovered, percentage of the seeded embryos (dfmr1 null embryos): at least 25%; viability of homozygous deficient flies relative to their normal viability on LF ([2]; 10 μM MPEP added to CF): approximately 60%; dfmr1^3−/− viability on CF (in words) ([2]; CF supplemented with MPEP (10 μM), FIG. 1C, P<0.005): improved
CC[C@@H]1C(=O)OC[C@@H]1Cc1cncn1C [Pilocarpine nitrate] |  |  | 79 | recovery of homozygous dFmr1 flies ([2]; 5 microM in JAZMIX food): 88.5%; brain structural abnormality (mushroom body formation) in treated dFmr1 flies (in words) [1]: significant suppression
CN1CC(=O)NC1=N [creatinine] |  |  | 85 | recovery of homozygous dFmr1 flies ([2]; 40 microM in JAZMIX food): 123.2%
N[C@@H](CCC(=O)O)C(=O)O [glutamate] |  |  |  | viability of dfmr1 homozygous null progeny [3]: dose-dependent decline
CC[C@H]1C(=O)OC[C@@H]1Cc1cncn1C [isopilocarpine] | significantly improved | completely rescued |  | 
O=C(O)C1CCCNC1 (centres unmarked) [nipecotic acid] | significantly improved | did not significantly influence | 73 | recovery of homozygous dFmr1 flies ([2]; 40 microM in JAZMIX food): 84%; brain structural abnormality (mushroom body formation) in treated dFmr1 flies (in words) [1]: significant suppression
